# Columns and labels:
# [1] = target: T1, cAMP-specific 3',5'-cyclic phosphodiesterase 4B [316-320,321-700,S319G,N320S,N321H,T322M] (Homo sapiens, UniProt Q07343, S319G/N320S/N321H/T322M); experiment: Phosphodiesterase (PDE) Inhibition Assay; details: pH 7.5; 30 °C
# T1 construct: 316-320,321-700
# Procedure: (§1) Phosphodiesterase activities were assayed in the presence of inhibitor compounds. Measurement takes advantage of the selective binding of 5-AMP or 5-GMP (and not cAMP or cGMP) to yttrium silicate beads with embedded scintillant. Hydrolysis is quantified by reading in a scintillation counter (Trilux, Wallac). The cAMP and cGMP concentrations used were far below the Km of PDE.
# [2] = target: cAMP-specific 3',5'-cyclic phosphodiesterase 4D [372-376,381-715,S375G,I381V,S383G,G384S,V385H,K386M) (Homo sapiens, UniProt Q08499, S375G/I381V/S383G/G384S/V385H/K386M); experiment: Phosphodiesterase (PDE) Inhibition Assay
# Procedure: as §1
SMILES,IC50 [1],IC50 [2]
"CCOC(=O)c1cnn(-c2ncnc3sc4c(c23)CCCC4)c1N [ethyl 5-amino-1-{8-thia-4,6-diazatricyclo[7.4.0.0^{2,7}]trideca-1(9),2(7),3,5-tetraen-3-yl}-1H-pyrazole-4-carboxylate]",25 µM,50 µM
CCOC(=O)c1cn[nH]c1C [ethyl 3-methyl-1H-pyrazole-4-carboxylate],> 200 µM,> 200 µM
"CCOC(=O)c1c(C)nn(-c2ccc(C(C)(C)C)cc2)c1C [ethyl 1-(4-tert-butylphenyl)-3,5-dimethyl-1H-pyrazole-4-carboxylate]",19 µM,14 µM
CCOC(=O)c1cn[nH]c1N [ethyl 3-amino-1H-pyrazole-4-carboxylate],> 200 µM,> 200 µM
"CCOC(=O)c1c(C)nn(-c2cccc3cccnc23)c1C [ethyl 3,5-dimethyl-1-(quinolin-8-yl)-1H-pyrazole-4-carboxylate]",17 µM,19 µM
"Cc1n[nH]c(C)c1C(=O)O [3,5-dimethyl-1H-pyrazole-4-carboxylic acid]",> 200 µM,> 200 µM
CCOC(=O)c1c[nH]nc1C(F)(F)F [5-(trifluoromethyl)-1H-pyrazole-4-carboxylic acid ethyl ester],> 200 µM,> 200 µM
"CCOC(=O)c1c(C)nn(-c2ccc(OC(F)(F)F)cc2)c1C [ethyl 3,5-dimethyl-1-[4-(trifluoromethoxy)phenyl]-1H-pyrazole-4-carboxylate]",32 µM,21 µM
"CCOC(=O)c1c(C)nn(-c2ccccc2Cl)c1C [ethyl 1-(2-chlorophenyl)-3,5-dimethyl-1H-pyrazole-4-carboxylate]",,0.019 µM
"CCOC(=O)c1c(C)nn(-c2ccc([N+](=O)[O-])cc2[N+](=O)[O-])c1C [ethyl 1-(2,4-dinitrophenyl)-3,5-dimethyl-1H-pyrazole-4-carboxylate]",17 µM,4.6 µM
CCOC(=O)c1c(-c2ccc(OC)cc2)n[nH]c1N [ethyl 3-amino-5-(4-methoxyphenyl)-1H-pyrazole-4-carboxylate],15 µM,19 µM
"COC(=O)c1c(-c2cc(C)on2)n[nH]c1C [methyl 3-methyl-5-(5-methyl-1,2-oxazol-3-yl)-1H-pyrazole-4-carboxylate]",> 200 µM,> 200 µM
"CCOC(=O)c1c(C)nn(-c2ccc(OC)cc2)c1C [ethyl 1-(4-methoxyphenyl)-3,5-dimethyl-1H-pyrazole-4-carboxylate]",5.9 µM,
"CCOC(=O)c1c(C)nn(-c2ccc([N+](=O)[O-])cc2)c1C [ethyl 3,5-dimethyl-1-(4-nitrophenyl)-1H-pyrazole-4-carboxylate]",0.84 µM,1 µM
CCOC(=O)c1cn(-c2ccccc2)nc1-c1ccc(Cl)cc1 [ethyl 3-(4-chlorophenyl)-1-phenyl-1H-pyrazole-4-carboxylate],1.5 µM,0.88 µM
"CCOC(=O)c1c(C)nn(-c2ccc(N)cc2)c1C [ethyl 1-(4-aminophenyl)-3,5-dimethyl-1H-pyrazole-4-carboxylate]",0.35 µM,
"CCOC(=O)c1c(C)nn(-c2ccccc2)c1C [ethyl 3,5-dimethyl-1-phenyl-1H-pyrazole-4-carboxylate]",0.31 µM,
"CCOC(=O)c1c(C)n[nH]c1C [ethyl 3,5-dimethyl-1H-pyrazole-4-carboxylate]",60 µM,
"CCOC(=O)c1c(C)nn(-c2ccc(S(N)(=O)=O)cc2)c1C [ethyl 3,5-dimethyl-1-(4-sulfamoylphenyl)-1H-pyrazole-4-carboxylate]",13 µM,9.1 µM
"CCOC(=O)c1c(C)nn(-c2cc(C(F)(F)F)cc(C(F)(F)F)c2)c1C [ethyl 1-[3,5-bis(trifluoromethyl)phenyl]-3,5-dimethyl-1H-pyrazole-4-carboxylate]",160 µM,97 µM
